Data from PubChem BioAssay (NCI).
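The compound was tested at five concentrations on cells cultured in 96-well plates, with a 48-hour exposure period. The concentration for 50% growth inhibition is given as GI50. TGI: concentration producing complete growth inhibition.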

Legend:
Experiment in all cases: inhibition of tumour cell growth, NCI panel, 48 h
[1] = test system: 786-0 renal
[2] = test system: A498 renal
[3] = test system: A549 NSCLC
[4] = test system: ACHN renal
[5] = test system: BT-549 breast
[6] = test system: CAKI-1 renal
[7] = test system: CCRF-CEM leukemia
[8] = test system: COLO 205 colon
[9] = test system: DU-145 prostate
[10] = test system: EKVX NSCLC
[11] = test system: HCT-116 colon
[12] = test system: HCT-15 colon
[13] = test system: HL-60(TB) leukemia
[14] = test system: HOP-62 NSCLC
[15] = test system: HOP-92 NSCLC
[16] = test system: HS 578T breast
[17] = test system: IGROV1 ovarian
[18] = test system: K-562 leukemia
[19] = test system: KM12 colon
[20] = test system: LOX IMVI melanoma
[21] = test system: M14 melanoma
[22] = test system: MCF7 breast
[23] = test system: MDA-MB-231 breast
[24] = test system: MDA-MB-435
[25] = test system: MOLT-4 leukemia
[26] = test system: NCI-H226 lung
[27] = test system: NCI-H460 lung
[28] = test system: NCI-H522 lung
[29] = test system: OVCAR-3 ovarian
[30] = test system: OVCAR-8 ovarian
[31] = test system: PC-3 prostate
[32] = test system: RPMI-8226 leukemia
[33] = test system: RXF 393 renal
[34] = test system: SF-268 CNS
[35] = test system: SF-295 CNS
[36] = test system: SF-539 CNS
[37] = test system: SK-MEL-2 melanoma
[38] = test system: SK-MEL-5 melanoma
[39] = test system: SK-OV-3 ovarian
[40] = test system: SN12C renal
[41] = test system: SNB-19 CNS
[42] = test system: SR leukemia
[43] = test system: SW-620 colon
[44] = test system: T-47D breast
[45] = test system: TK-10 renal
[46] = test system: U251 CNS
[47] = test system: UACC-257 melanoma
[48] = test system: UACC-62 melanoma
[49] = test system: UO-31 renal
[50] = test system: HCC-2998 colon
[51] = test system: NCI-H23 lung
[52] = test system: NCI/ADR-RES ovarian
[53] = test system: OVCAR-5 ovarian

O=C(Nc1ccc(Cl)cc1Cl)c1ccc(NC2=C(Cl)C(=O)N(Cc3ccccc3)C2=O)cc1
GI50 [1]: 21.6 µM | TGI [1]: > 100 µM | GI50 [2]: 31.3 µM | TGI [2]: 79.7 µM | GI50 [3]: 25.9 µM | TGI [3]: 66.1 µM | GI50 [4]: 18.9 µM | TGI [4]: 33.7 µM | GI50 [5]: 15.6 µM | TGI [5]: 30 µM | GI50 [6]: 26.4 µM | TGI [6]: 63.5 µM | GI50 [7]: 1.99 µM | TGI [7]: 6.84 µM | GI50 [8]: 16.3 µM | TGI [8]: 38.8 µM | GI50 [9]: 18.7 µM | TGI [9]: 39.4 µM | GI50 [10]: 21.7 µM | TGI [10]: 46.1 µM | GI50 [11]: 34.2 µM | TGI [11]: > 100 µM | GI50 [12]: 16.8 µM | TGI [12]: > 100 µM | GI50 [13]: 2.5 µM | TGI [13]: 9.01 µM | GI50 [14]: 20.2 µM | TGI [14]: 40.5 µM | GI50 [15]: 13.1 µM | TGI [15]: 26.7 µM | GI50 [16]: 23.5 µM | TGI [16]: 47 µM | GI50 [17]: 12.2 µM | TGI [17]: > 100 µM | GI50 [18]: 6.24 µM | TGI [18]: 18.4 µM | GI50 [19]: 21.1 µM | TGI [19]: 64.4 µM | GI50 [20]: 6.6 µM | TGI [20]: 19.1 µM | GI50 [21]: 64.6 µM | TGI [21]: > 100 µM | GI50 [22]: 5.91 µM | TGI [22]: 30.6 µM | GI50 [23]: 17.4 µM | TGI [23]: 31.2 µM | GI50 [24]: 32.5 µM | TGI [24]: > 100 µM | GI50 [25]: 3.57 µM | TGI [25]: 11.3 µM | GI50 [26]: 20.5 µM | TGI [26]: 45.8 µM | GI50 [27]: 15.8 µM | TGI [27]: 37.9 µM | GI50 [28]: 31.6 µM | TGI [28]: > 100 µM | GI50 [29]: 16.3 µM | TGI [29]: 33.5 µM | GI50 [30]: 12.8 µM | TGI [30]: 25.4 µM | GI50 [31]: 13.4 µM | TGI [31]: 26.2 µM | GI50 [32]: 2.84 µM | TGI [32]: 9.04 µM | GI50 [33]: 17.6 µM | TGI [33]: 38.8 µM | GI50 [34]: 16.5 µM | TGI [34]: 36.6 µM | GI50 [35]: 19.5 µM | TGI [35]: 38.1 µM | GI50 [36]: 18.9 µM | TGI [36]: 33.1 µM | GI50 [37]: 54.1 µM | TGI [37]: > 100 µM | GI50 [38]: 20.6 µM | TGI [38]: 65.8 µM | GI50 [39]: 30.3 µM | TGI [39]: 78.8 µM | GI50 [40]: 20.3 µM | TGI [40]: 42.8 µM | GI50 [41]: 17.9 µM | TGI [41]: 31.9 µM | GI50 [42]: 1.35 µM | TGI [42]: 3.12 µM | GI50 [43]: 34 µM | TGI [43]: > 100 µM | GI50 [44]: 23.4 µM | TGI [44]: > 100 µM | GI50 [45]: 25.5 µM | TGI [45]: 81.9 µM | GI50 [46]: 12.2 µM | TGI [46]: 24.5 µM | GI50 [47]: 26.2 µM | TGI [47]: 71.8 µM | GI50 [48]: 18.6 µM | TGI [48]: 35.3 µM | GI50 [49]: 3.56 µM | TGI [49]: > 100 µM

COc1cc2c(/C=N\N=C(N)N)c(Cl)[nH]c2cc1C
GI50 [1]: 14.4 µM | TGI [1]: 28.3 µM | GI50 [2]: 19.9 µM | TGI [2]: 35 µM | GI50 [3]: 18.6 µM | TGI [3]: 37.3 µM | GI50 [4]: 11.1 µM | TGI [4]: 23.6 µM | GI50 [5]: 13.2 µM | TGI [5]: 27.8 µM | GI50 [6]: 17 µM | TGI [6]: 32.7 µM | GI50 [7]: 3.89 µM | TGI [7]: 17.5 µM | GI50 [8]: 2.67 µM | TGI [8]: 8.82 µM | GI50 [10]: 16.9 µM | TGI [10]: 34.5 µM | GI50 [50]: 2.5 µM | TGI [50]: 5.67 µM | GI50 [11]: 10.2 µM | TGI [11]: 21.9 µM | GI50 [12]: 18 µM | TGI [12]: 34.1 µM | GI50 [16]: 10.8 µM | TGI [16]: 32.6 µM | GI50 [17]: 17.5 µM | TGI [17]: 49.9 µM | GI50 [18]: 4.36 µM | TGI [18]: 19.7 µM | GI50 [19]: 7.17 µM | TGI [19]: 22.6 µM | GI50 [20]: 11.4 µM | TGI [20]: 25.3 µM | GI50 [21]: 12.5 µM | TGI [21]: 25.2 µM | GI50 [22]: 6.47 µM | TGI [22]: 27.5 µM | GI50 [23]: 6.4 µM | TGI [23]: 20.8 µM | GI50 [24]: 12.2 µM | TGI [24]: 26.2 µM | GI50 [25]: 2.82 µM | TGI [25]: 7.41 µM | GI50 [26]: 10.5 µM | TGI [26]: 26.3 µM | GI50 [51]: 14.1 µM | TGI [51]: 28 µM | GI50 [27]: 15 µM | TGI [27]: > 100 µM | GI50 [28]: 21.4 µM | TGI [28]: > 100 µM | GI50 [52]: 23.3 µM | TGI [52]: 50.5 µM | GI50 [29]: 5.49 µM | TGI [29]: 20.6 µM | GI50 [53]: 15.2 µM | TGI [53]: 29 µM | GI50 [30]: 15.4 µM | TGI [30]: 38.6 µM | GI50 [31]: 6.54 µM | TGI [31]: 19.5 µM | GI50 [32]: 10.5 µM | TGI [32]: 25 µM | GI50 [33]: 14.8 µM | TGI [33]: 30.1 µM | GI50 [34]: 15.2 µM | TGI [34]: 40.7 µM | GI50 [35]: 8.28 µM | TGI [35]: 23.1 µM | GI50 [36]: 10.2 µM | TGI [36]: 25 µM | GI50 [37]: 34.5 µM | TGI [37]: > 100 µM | GI50 [38]: 5.08 µM | TGI [38]: 19 µM | GI50 [39]: 9.03 µM | TGI [39]: 24.1 µM | GI50 [40]: 1.65 µM | TGI [40]: 11.5 µM | GI50 [41]: 12.7 µM | TGI [41]: 29.2 µM | GI50 [42]: 3.34 µM | TGI [42]: 8.22 µM | GI50 [43]: 14.7 µM | TGI [43]: 30.7 µM | GI50 [44]: 2.96 µM | TGI [44]: 9.12 µM | GI50 [45]: 15.7 µM | TGI [45]: 29.5 µM | GI50 [46]: 4.62 µM | TGI [46]: 17.7 µM | GI50 [47]: 16.5 µM | TGI [47]: 32.5 µM | GI50 [48]: 12 µM | TGI [48]: 24.6 µM | GI50 [49]: 27.5 µM | TGI [49]: 84.6 µM
